Experimental data as given in patent US20230064324A1, “NEW USES FOR STEVIOL” (SUNTORY HOLDINGS LIMITED, priority 2019, published 2023).
Read-outs that look alike come from different tables or passages of the source.

How the values were obtained:
CHOP [1] = assay: CHOP expression in neuronal cells under endoplasmic reticulum stress (RT-PCR); format: cell-based, Rat; details: pretreatment 1 h, tunicamycin 0.16 μM 24 h
Experimental: (§1) Neuronal cells were prepared as follows. PC12 cells were reconstituted by seeding at 2×10^6 cells/flask to a collagen IV-coated flask, and precultured for 3 days in the growth medium in a CO2 incubator.
(§2) The lysate was preserved at −80° C. until use.
(§3) The internal standard gene used was GAPDH gene.

GRP78 [2] = assay: GRP78 expression in neuronal cells under endoplasmic reticulum stress (RT-PCR); format: cell-based, Rat; details: pretreatment 24 h, tunicamycin 1.0 μM 24 h
Experimental: as §1, §2, §3

CHOP [3] = assay: CHOP expression in adipocytes under endoplasmic reticulum stress (RT-PCR); format: cell-based, Human; details: pretreatment 24 h, tunicamycin 0.65 μM 24 h
Experimental: (§4) Adipocytes were prepared as follows. Normal human subcutaneous preadipocytes were reconstituted in a T75 flask using a growth medium (PBM-2 medium, Cat. No. PT-8002, Lonza, supplemented with 10% FBS, 2 mM L-glutamine, 50 μg/mL gentamycin, and 37 ng/mL amphotericin-B), and precultured for 3 days in a CO2 incubator (37° C., 5% CO2; the same holds true for the description below).
as §2, §3

GRP78 [4] = assay: GRP78 expression in adipocytes under endoplasmic reticulum stress (RT-PCR); format: cell-based, Human; details: pretreatment 24 h, tunicamycin 0.65 μM 24 h
Experimental: as §4, §2, §3

CHOP [5] = details: pretreatment 4 h, tunicamycin 0.65 μM 24 h
Experimental: (§5) Steviol was evaluated for its influence on endoplasmic reticulum stress in each type of cell by using endoplasmic reticulum stress markers CHOP and GRP78 as an index. The test cells used were neuronal cells (induced from PC12 cells), adipocytes (normal human subcutaneous preadipocytes, Cat. No. PT-5020, Lonza Group AG), hepatocytes (HepG2, Cat. No. JCRB1054, JCRB) and pancreatic cells (βTC6, ATCC® CRL-11506).
(§6) Hepatocytes were prepared as follow. HepG2 cells were seeded to a T75 flask and precultured for 1 day in a CO2 incubator using a growth medium (DMEM (high glucose, Cat. No. D5796, Sigma-Aldrich) supplemented with 10% FBS (Cat. No. 172012, Sigma-Aldrich), 1% penicillin-streptomycin (Cat. No. 09367-34, Nacalai Tesque, Inc.)).
(§7) 4PA (P21005, Sigma-Aldrich Co., LLC) was dissolved in a medium and then added at a predetermined concentration to a differentiation medium or a growth medium.
(§8) After the completion of endoplasmic reticulum stress induction treatment, the expression levels of CHOP and GRP78 were measured to evaluate the degree of endoplasmic reticulum stress. First, FasteLane lysate (RNA) was prepared for RNA extraction using FastLane Cell Probe kit (Cat. No. 216413, Qiagen N.V.). After removal of the medium, each well was washed by the addition of 125 μL of Buffer FCW and its immediate removal. Then, 50 μL of Cell processing mix was added to each well, followed by incubation at room temperature for 5 minutes to prepare FasteLane lysate. Next, the FasteLane lysate was transferred to a PCR tube and incubated at 75° C. for 5 minutes. The lysate was preserved at −80° C. until use.
(§9) Gene expression analysis was carried out by the following procedures. One Step real-time RT-PCR was performed with the composition of Table 8 using QuantiTect Probe RT-PCR Kit attached to FastLane Cell Probe kit.
(§10) RT-PCR reaction was performed under conditions of 50° C. for 30 minutes, 95° C. for 15 minutes, and (94° C. for 15 seconds and 60° C. for 60 seconds)×40 cycles. The internal standard gene used was GAPDH gene. A relative expression level was calculated by the ΔΔCt method. Significant difference among tunicamycin addition groups (vehicle group vs positive control group/steviol addition group) was tested by the Dunnett test.

GRP78 [6] = details: pretreatment 4 h, tunicamycin 0.65 μM 24 h
Experimental: as §5, §6, §7, §8, §9, §10

CHOP [7] = assay: CHOP expression in pancreatic cells (βTC6) under endoplasmic reticulum stress (RT-PCR); format: cell-based, Mouse; details: pretreatment 4 h, tunicamycin 0.16 μM 24 h
Experimental: as §2, §3

GRP78 [8] = assay: GRP78 expression in pancreatic cells (βTC6) under endoplasmic reticulum stress (RT-PCR); format: cell-based, Mouse; details: pretreatment 4 h, tunicamycin 0.16 μM 24 h
Experimental: as §2, §3

PC12 cells (clone HS) = assay: Neurite elongation-promoting effect on PC12 cells (neurite length per cell, Operetta CLS); format: cell-based, Rat; details: positive control, 50 ng/mL NGF, 3 days, negative control=100%
Experimental: PC12 cells (clone HS) were precultured using a growth medium in the same manner as in Example 1. […] The cells thus cultured were subjected to cell membrane staining using Cell Membrane Stain attached to Neurite Outgrowth Staining Kit (Thermo Fisher Scientific Inc.) and nuclear staining using Hoechst 33342 (Cat. No. H3570). Specifically, the medium was replaced with 100 μL of a fixative and staining solution (prepared by adding a 1/1000 amount each of Cell Membrane Stain (1000×) and Hoechst 33342 and a 1/25 amount of a formaldehyde solution (Cat. No. 061-00416, FUJIFILM Wako Pure Chemical Corp.) to DPBS (++) (Cat. No. 14040133, Thermo Fisher Scientific Inc.)), followed by incubation for 20 minutes in a CO2 incubator (5% CO2, 37° C., humid). […] Photographing and quantitative analysis were carried out using Operetta CLS (Perkin Elmer, Inc.), and a neurite length per cell was calculated. Nine fields of view at the center of each well were photographed using a 10× objective lens. A test medium supplemented with 50 ng/mL NGF was used as a positive control, and a vehicle control composed of a differentiation medium supplemented with 0.1% DMSO (final concentration) was used as a negative control.

O=C(O)CCCc1ccccc1 [4PA, reference compound] was tested, and the “Expression level of CHOP in neuronal cells (relative to GAPDH, untreated=1)” value (CHOP [1]; 4PA 0.1 mM) was 6.04, the “Expression level of CHOP in neuronal cells (relative to GAPDH, untreated=1)” value (CHOP [1]; 4PA 0.3 mM) was 5.87 and the “Expression level of GRP78 in neuronal cells (relative to GAPDH, untreated=1)” value (GRP78 [2]; 4PA 0.1 mM) was 19.72. The “Expression level of GRP78 in neuronal cells (relative to GAPDH, untreated=1)” value (GRP78 [2]; 4PA 0.3 mM) was 20.05, the “Expression level of CHOP in adipocytes (relative to GAPDH, untreated=1)” value (CHOP [3]; 4PA 0.1 mM) was 3.52 and the “Expression level of CHOP in adipocytes (relative to GAPDH, untreated=1)” value (CHOP [3]; 4PA 1 mM) was 3.22. The “Expression level of GRP78 in adipocytes (relative to GAPDH, untreated=1)” value (GRP78 [4]; 4PA 0.1 mM) was 4.78, the “Expression level of GRP78 in adipocytes (relative to GAPDH, untreated=1)” value (GRP78 [4]; 4PA 1 mM) was 4.25 and the “Expression level of CHOP in hepatocytes (relative to GAPDH, untreated=1)” value (CHOP [5]; 4PA 0.1 mM) was 3.23. For the same compound, the “Expression level of CHOP in hepatocytes (relative to GAPDH, untreated=1)” value (CHOP [5]; 4PA 0.3 mM) was 2.79, the “Expression level of CHOP in hepatocytes (relative to GAPDH, untreated=1)” value (CHOP [5]; 4PA 1 mM) was 2.13 and the “Expression level of GRP78 in hepatocytes (relative to GAPDH, untreated=1)” value (GRP78 [6]; 4PA 0.1 mM) was 2.82. The “Expression level of GRP78 in hepatocytes (relative to GAPDH, untreated=1)” value (GRP78 [6]; 4PA 0.3 mM) was 2.49, the “Expression level of GRP78 in hepatocytes (relative to GAPDH, untreated=1)” value (GRP78 [6]; 4PA 1 mM) was 1.96 and the “Expression level of CHOP in pancreatic cells (relative to GAPDH, untreated=1)” value (CHOP [7]; 4PA 0.3 mM) was 2.53. For the same compound, the “Expression level of CHOP in pancreatic cells (relative to GAPDH, untreated=1)” value (CHOP [7]; 4PA 1 mM) was 1.78, the “Expression level of CHOP in pancreatic cells (relative to GAPDH, untreated=1)” value (CHOP [7]; 4PA 3 mM) was 1.71 and the “Expression level of CHOP in pancreatic cells (relative to GAPDH, untreated=1)” value (CHOP [7]; 4PA 10 mM) was 2.47. The “Expression level of GRP78 in pancreatic cells (relative to GAPDH, untreated=1)” value (GRP78 [8]; 4PA 0.3 mM) was 2.33, the “Expression level of GRP78 in pancreatic cells (relative to GAPDH, untreated=1)” value (GRP78 [8]; 4PA 1 mM) was 2.37 and the “Expression level of GRP78 in pancreatic cells (relative to GAPDH, untreated=1)” value (GRP78 [8]; 4PA 3 mM) was 1.66. The “Expression level of GRP78 in pancreatic cells (relative to GAPDH, untreated=1)” value (GRP78 [8]; 4PA 10 mM) was 1.22.
For “IGF-1: positive control, 100 ng/mL IGF-1 (Cat. No. SRP4121, Sigma-Aldrich)”, the “Expression level of CHOP in neuronal cells (relative to GAPDH, untreated=1)” value (CHOP [1]; IGF-1 100 ng/mL) was 5.97 and the “Expression level of GRP78 in neuronal cells (relative to GAPDH, untreated=1)” value (GRP78 [2]; IGF-1 100 ng/mL) was 19.77.
In the case of “NGF: positive control, 50 ng/mL NGF (Cat. No. 13257019, Thermo Fisher Scientific), differentiation inducer”, the “Relative neurite length (%)” value (PC12 cells (clone HS)) is reported as 269.4%.
